Source: ChEMBL document CHEMBL1671651, “Azithromycin in Pseudomonas aeruginosa biofilms: bactericidal activity and selection of nfxB mutants” (2009)
Converted amounts (≈) assume the structure as drawn.

Legend:
Assay type in all cases: functional
[1] = system: Pseudomonas aeruginosa; assay: Antimicrobial activity against mutS::lox,nfxB gene-deficient Pseudomonas aeruginosa PAOMSNB biofilm by Etest method
[2] = system: Pseudomonas aeruginosa; assay: Antimicrobial activity against mucA::lox, mutS::lox-deficient Pseudomonas aeruginosa PAOMSAB biofilm harboring nfxB T86C mutant gene selected at 4 ug/ml of azithromycin after 2 passages by Etest method
[3] = system: Pseudomonas aeruginosa; assay: Antimicrobial activity against mutS::lox-deficient Pseudomonas aeruginosa PAOMSA biofilm harboring nfxB C116T mutant gene selected at 1 ug/ml of azithromycin after 1 passages by Etest method
[4] = system: Pseudomonas aeruginosa; assay: Antimicrobial activity against mucA::lox, mutS::lox-deficient Pseudomonas aeruginosa PAOMSAA biofilm harboring nfxB T86C mutant gene selected at 4 ug/ml of azithromycin after 2 passages by Etest method
[5] = system: Pseudomonas aeruginosa; assay: Antimicrobial activity against mucA::lox, mutS::lox-deficient Pseudomonas aeruginosa PAOMSAB biofilm harboring nfxB C25T mutant gene selected at 1 ug/ml of azithromycin after 2 passages by Etest method
[6] = system: Pseudomonas aeruginosa; assay: Antimicrobial activity against mucA::lox, mutS::lox-deficient Pseudomonas aeruginosa PAOMSAA biofilm harboring nfxB C89T mutant gene selected at 4 ug/ml of azithromycin after 6 passages by Etest method
[7] = system: Pseudomonas aeruginosa; assay: Antimicrobial activity against mucA::lox, mutS::lox-deficient Pseudomonas aeruginosa PAOMSAA biofilm harboring nfxB T77C mutant gene selected at 4 ug/ml of azithromycin after 3 passages by Etest method
[8] = system: Pseudomonas aeruginosa; assay: Antimicrobial activity against mutS::lox,mexD::lox-deficient Pseudomonas aeruginosa PAOMSMxD biofilm by Etest method
[9] = system: Pseudomonas aeruginosa; assay: Antimicrobial activity against mutS::lox-deficient Pseudomonas aeruginosa PAOMSB biofilm harboring nfxB C116T mutant gene selected at 4 ug/ml of azithromycin after 5 passages by Etest method
[10] = system: Pseudomonas aeruginosa; assay: Antimicrobial activity against mutS::lox-deficient Pseudomonas aeruginosa PAOMSA biofilm harboring nfxB G539A mutant gene selected at 4 ug/ml of azithromycin after 6 passages by Etest method
[11] = system: Pseudomonas aeruginosa; assay: Antimicrobial activity against Pseudomonas aeruginosa PAO1 A biofilm harboring duplication mutation at nucleotide 333 in nfxB gene selected at 0.5 ug/ml of azithromycin by Etest method
[12] = system: Pseudomonas aeruginosa; assay: Antimicrobial activity against mucA::lox-deficient Pseudomonas aeruginosa PAOMAB biofilm harboring nfxB G125T mutant gene selected at 0.5 ug/ml of azithromycin after 1 passages by Etest method
[13] = system: Pseudomonas aeruginosa; assay: Antimicrobial activity against mutS::lox-deficient Pseudomonas aeruginosa PAOMSB biofilm harboring nfxB T380C mutant gene selected at 0.5 ug/ml of azithromycin after 2 passages by Etest method
[14] = system: Pseudomonas aeruginosa; assay: Antimicrobial activity against Pseudomonas aeruginosa PAO1 A biofilm harboring deletion mutation at nucleotide 231-244 in nfxB gene selected at 1 ug/ml of azithromycin after 4 passages by Etest method
[15] = system: Pseudomonas aeruginosa; assay: Antimicrobial activity against mutS::lox-deficient Pseudomonas aeruginosa PAOMSA biofilm harboring nfxB T86C mutant gene selected at 4 ug/ml of azithromycin after 4 passages by Etest method
[16] = system: Pseudomonas aeruginosa; assay: Antimicrobial activity against nfxB gene-deficient Pseudomonas aeruginosa PAONB biofilm by Etest method
[17] = system: Pseudomonas aeruginosa; assay: Antimicrobial activity against mucA::lox, mutS::lox-deficient Pseudomonas aeruginosa PAOMSAA biofilm harboring nfxB C89T mutant gene selected at 0.5 ug/ml of azithromycin after 3 passages by Etest method
[18] = system: Pseudomonas aeruginosa; assay: Antimicrobial activity against mutS::lox-deficient Pseudomonas aeruginosa PAOMSB biofilm harboring nfxB T562C mutant gene selected at 4 ug/ml of azithromycin after 4 passages by Etest method
[19] = system: Pseudomonas aeruginosa; assay: Antimicrobial activity against Pseudomonas aeruginosa PAO1 A biofilm harboring nfxB T248C mutant gene selected at 4 ug/ml of azithromycin after 4 passages by Etest method
[20] = system: Pseudomonas aeruginosa; assay: Antimicrobial activity against mutS::lox-deficient Pseudomonas aeruginosa PAOMSB biofilm harboring nfxB T41C mutant gene selected at 4 ug/ml of azithromycin after 3 passages by Etest method
[21] = system: Pseudomonas aeruginosa; assay: Antimicrobial activity against Pseudomonas aeruginosa PAO1 biofilm by Etest method
[22] = system: Pseudomonas aeruginosa; assay: Antimicrobial activity against mucA::lox-deficient Pseudomonas aeruginosa PAOMAA biofilm harboring nfxB C25T mutant gene selected at 1 ug/ml of azithromycin after 2 passages by Etest method
[23] = system: Pseudomonas aeruginosa; assay: Antimicrobial activity against mexD::lox-deficient Pseudomonas aeruginosa PAOMxD biofilm by Etest method
[24] = system: Pseudomonas aeruginosa; assay: Antimicrobial activity against mutS::lox-deficient Pseudomonas aeruginosa PAOMSB biofilm harboring deletion od C534 in nfxB mutant gene selected at 4 ug/ml of azithromycin after 2 passages by Etest method
[25] = system: Pseudomonas aeruginosa; assay: Antimicrobial activity against mucA::lox, mutS::lox-deficient Pseudomonas aeruginosa PAOMSAB biofilm harboring nfxB T544C mutant gene selected at 4 ug/ml of azithromycin after 1 passages by Etest method
[26] = system: Pseudomonas aeruginosa; assay: Antimicrobial activity against mutS::lox-deficient Pseudomonas aeruginosa PAOMSA biofilm harboring nfxB T86C mutant gene selected at 4 ug/ml of azithromycin after 3 passages by Etest method
[27] = system: Pseudomonas aeruginosa; assay: Antimicrobial activity against mutS::lox-deficient Pseudomonas aeruginosa PAOMSA biofilm harboring nfxB G461A mutant gene selected at 4 ug/ml of azithromycin after 5 passages by Etest method
[28] = system: Pseudomonas aeruginosa; assay: Antimicrobial activity against mucA::lox-deficient Pseudomonas aeruginosa PAOMA biofilm by Etest method
[29] = system: Pseudomonas aeruginosa; assay: Antimicrobial activity against mucA::lox, mutS::lox-deficient Pseudomonas aeruginosa PAOMSAB biofilm harboring nfxB C89T mutant gene selected at 4 ug/ml of azithromycin after 6 passages by Etest method
[30] = system: Pseudomonas aeruginosa; assay: Antimicrobial activity against mutS::lox-deficient Pseudomonas aeruginosa PAOMSB biofilm harboring nfxB T77C mutant gene selected at 4 ug/ml of azithromycin after 6 passages by Etest method
[31] = system: Pseudomonas aeruginosa; assay: Antimicrobial activity against mutS::lox-deficient Pseudomonas aeruginosa PAOMS biofilm by Etest method
[32] = system: Pseudomonas aeruginosa; assay: Antimicrobial activity against mucA::lox, mutS::lox-deficient Pseudomonas aeruginosa PAOMSA biofilm by Etest method
[33] = system: Pseudomonas aeruginosa; assay: Antimicrobial activity against mutS::lox-deficient Pseudomonas aeruginosa PAOMSA biofilm harboring nfxB T533C mutant gene selected at 4 ug/ml of azithromycin after 2 passages by Etest method

Row | Compound | MIC [1] [mg/L] | MIC [2] [mg/L] | MIC [3] [mg/L] | MIC [4] [mg/L] | MIC [5] [mg/L] | MIC [6] [mg/L] | MIC [7] [mg/L] | MIC [8] [mg/L] | MIC [9] [mg/L] | MIC [10] [mg/L] | MIC [11] [mg/L] | MIC [12] [mg/L] | MIC [13] [mg/L] | MIC [14] [mg/L] | MIC [15] [mg/L] | MIC [16] [mg/L] | MIC [17] [mg/L] | MIC [18] [mg/L] | MIC [19] [mg/L] | MIC [20] [mg/L] | other results
1 | O=C(O)c1cn(C2CC2)c2cc(N3CCNCC3)c(F)cc2c1=O [CIPROFLOXACIN] | 1 (≈ 3.02 µM) | 3 | 4 | 3 | 3 | 3 | 3 | 0.094 (≈ 0.284 µM) | 1.5 | 1 | 3 | 3 | 4 | 3 | 1 | 1 (≈ 3.02 µM) | 3 | 0.75 |  |  | 
2 | CO/N=C(\C(=O)N[C@@H]1C(=O)N2C(C(=O)[O-])=C(C[N+]3(C)CCCC3)CS[C@H]12)c1csc(N)n1 [CEFEPIME] | 8 (≈ 16.6 µM) | 12 | 12 | 16 | 8 | 16 | 12 | 1.5 (≈ 3.12 µM) | 12 | 12 | 12 | 12 | 12 | 12 | 6 | 8 (≈ 16.6 µM) | 12 | 6 | 12 | 8 | MIC [21]: 1.5 mg/L (≈ 3.12 µM); MIC [22]: 12 mg/L; MIC [23]: 1.5 mg/L (≈ 3.12 µM); MIC [24]: 12 mg/L; MIC [25]: 12 mg/L; MIC [26]: 16 mg/L; MIC [27]: 8 mg/L; MIC [28]: 1.5 mg/L (≈ 3.12 µM); MIC [29]: 16 mg/L; MIC [30]: 12 mg/L; MIC [31]: 1.5 mg/L (≈ 3.12 µM); MIC [32]: 1.5 mg/L (≈ 3.12 µM); MIC [33]: 8 mg/L
3 | CC(C)(O/N=C(\C(=O)N[C@@H]1C(=O)N2C(C(=O)[O-])=C(C[n+]3ccccc3)CS[C@H]12)c1csc(N)n1)C(=O)O [CEFTAZIDIME] | 1.5 (≈ 2.74 µM) | 2 | 1 | 1.5 | 1 | 1.5 | 2 | 1.5 (≈ 2.74 µM) | 1.5 | 1.5 | 1.5 | 0.5 | 1 | 1 | 1.5 | 1.5 (≈ 2.74 µM) | 1.5 | 1.5 | 1.5 | 2 | MIC [21]: 1.5 mg/L (≈ 2.74 µM); MIC [22]: 1 mg/L; MIC [23]: 1.5 mg/L (≈ 2.74 µM); MIC [24]: 2 mg/L; MIC [25]: 2 mg/L; MIC [26]: 2 mg/L; MIC [27]: 2 mg/L; MIC [28]: 1.5 mg/L (≈ 2.74 µM); MIC [29]: 1.5 mg/L; MIC [30]: 2 mg/L; MIC [31]: 1.5 mg/L (≈ 2.74 µM); MIC [32]: 1.5 mg/L (≈ 2.74 µM); MIC [33]: 1.5 mg/L
4 | COLISTIN | 1.5 | 2 | 2 | 3 | 2 | 2 | 2 | 2 | 1.5 | 1.5 | 1.5 | 1 | 2 | 2 | 3 | 1.5 | 1 | 3 | 1.5 | 2 | MIC [21]: 2 mg/L; MIC [22]: 1 mg/L; MIC [23]: 2 mg/L; MIC [24]: 2 mg/L; MIC [25]: 3 mg/L; MIC [26]: 2 mg/L; MIC [27]: 2 mg/L; MIC [28]: 2 mg/L; MIC [29]: 1 mg/L; MIC [30]: 0.5 mg/L; MIC [31]: 2 mg/L; MIC [32]: 2 mg/L; MIC [33]: 2 mg/L
5 | NC[C@H]1O[C@H](O[C@H]2[C@H](O)[C@@H](O[C@H]3O[C@H](CO)[C@@H](O)[C@H](N)[C@H]3O)[C@H](N)C[C@@H]2N)[C@H](N)C[C@@H]1O [TOBRAMYCIN] | 0.5 (≈ 1.07 µM) | 0.5 | 1 | 0.5 | 0.38 | 0.5 | 1.5 | 2 (≈ 4.28 µM) | 0.5 | 1 | 0.19 | 0.38 | 1 | 0.38 | 0.5 | 0.25 (≈ 0.535 µM) | 0.75 | 1.5 | 0.25 | 1 | MIC [21]: 1.5 mg/L (≈ 3.21 µM); MIC [22]: 0.38 mg/L; MIC [23]: 1.5 mg/L (≈ 3.21 µM); MIC [24]: 1 mg/L; MIC [25]: 1 mg/L; MIC [26]: 0.5 mg/L; MIC [27]: 1.5 mg/L; MIC [28]: 1.5 mg/L (≈ 3.21 µM); MIC [29]: 1 mg/L; MIC [30]: 1 mg/L; MIC [31]: 1.5 mg/L (≈ 3.21 µM); MIC [32]: 1.5 mg/L (≈ 3.21 µM); MIC [33]: 0.75 mg/L
